Data from patent publication US10658848B2, “Materials for use with aqueous redox flow batteries and related methods and systems” (Massachusetts Institute of Technology, priority 2014, dated 2020).
Marks after values point to notes of the source that are not given here.

Test: Qualitative cyclic voltammetry of quinoxaline electrolytes
Assay type: physicochemical
Experimental: Quinoxaline electrochemical behavior was characterized in a number of aqueous electrolytes. […] All electrochemical measurements presented in this paper were performed using a Biologic VSP-300 potentiostat. Glassy carbon electrodes were used as working electrodes in voltammetry experiments and were polished using 0.05 μm alumina suspension before performing a new set of measurements. Solution resistances were measured prior to electrochemical experiments to be 5Ω. Due to small peak currents during CV (less than 1 mA), the maximum estimated iR drop was 5 mV. During qualitative CV experiments, a 75% solution resistance compensation (iR correction) was applied during the experiment to ensure high quality data in untested systems. Quantitative CV techniques were carried with no iR correction as the small potential offset was unlikely to affect experimental results. Additionally, no iR correction was applied during RDV experiments because analyses only considered the limiting RDV current, which is unaffected by ohmic losses. All potentials given herein are presented versus the reversible hydrogen electrode (RHE), unless otherwise stated. Experimental potentials were determined versus a calibrated Ag/AgCl reference electrode and converted to potentials versus RHE using the […] equation and the pH of the solution, measured with a pH meter. All currents utilized in quantitative calculations were background corrected, assuming the background current was composed of non-faradaic, hydrogen evolution reaction and oxygen reduction reaction currents. Qualitative CV experiments were carried out in a three-electrode cell with a 0.3 cm diameter glassy carbon electrode (0.071 cm^2, CH Instruments), a platinum (Pt) wire counter electrode (CH Instruments) and a Ag/AgCl (3 M NaCl, BASi Inc.) reference electrode. […] Three-electrode cells were filled with 10 mL of solution, and the solution was bubbled with argon at a rate of 50 mL/min for 10 min prior to experiments. The argon bubbling tube was then adjusted such that it provided a blanket of argon gas over the surface of the solution. Then, ten cycles of CV were recorded at a scan rate of 100 mV/s. […] A linear slope to the front of an anodic peak (ma) and cathodic peak (mc) was estimated as a rough indicator of the overall reaction rate of either the forward or backward reaction, combining effects of both reaction kinetics and mass-transport. Achieving a slope ratio (ma/mc) of one, indicates an equally fast forward and backward overall reaction rate.

[1] = 0.45M Li2SO4/0.1M LiOH, pH 12.2
[2] = 0.495M K2SO4/0.01M KOH, pH 11.8
[3] = 0.495M Li2SO4/0.01M LiOH, pH 12.0
[4] = 0.5M K2SO4, pH 8.9, considerable degradation
[5] = 0.9M NaC2H3O2/0.1M NaOH, pH 12.7
[6] = 0.99M LiNO3/0.01M LiOH, pH 11.3
[7] = 0.99M NaC2H3O2/0.01M NaOH, pH 11.8
[8] = 0.99M NaHCO3/0.01M NaOH, pH 8.7
[9] = 0.99M NaNO3/0.01M NaOH, pH 11.6
[10] = 1M KNO3, pH 7.2, significant hydrogen evolution reaction current
[11] = 1M LiCl, pH 3.8, considerable degradation
[12] = 1M LiNO3, pH 6.0, significant hydrogen evolution reaction current
[13] = 1M NaHCO3, pH 8.7, considerable degradation

Structure (SMILES): c1ccc2nccnc2c1 [quinoxaline]
- E° vs. RHE (0.45M K2SO4/0.1M KOH, pH 12.8): −0.50 V
- ipa, 10/ipa, 2 (0.45M K2SO4/0.1M KOH, pH 12.8): 0.99
- ipc, 10/ipc, 2 (0.45M K2SO4/0.1M KOH, pH 12.8): 0.97
- ma/mc (0.45M K2SO4/0.1M KOH, pH 12.8): 0.51
- ΔEpp, 10/ΔEpp, 2 (0.45M K2SO4/0.1M KOH, pH 12.8): 1.05
- E° vs. RHE [1]: −0.52 V
- ipa, 10/ipa, 2 [1]: 1.00
- ipc, 10/ipc, 2 [1]: 0.99
- ma/mc [1]: 0.46
- ΔEpp, 10/ΔEpp, 2 [1]: 1.02
- E° vs. RHE [2]: −0.51 V
- ipa, 10/ipa, 2 [2]: 0.98
- ipc, 10/ipc, 2 [2]: 0.95
- ma/mc [2]: 0.64
- ΔEpp, 10/ΔEpp, 2 [2]: 1.08
- E° vs. RHE [3]: −0.52 V
- ipa, 10/ipa, 2 [3]: 0.96
- ipc, 10/ipc, 2 [3]: 0.95
- ma/mc [3]: 0.55
- ΔEpp, 10/ΔEpp, 2 [3]: 1.06
- E° vs. RHE [4]: −0.90 ^‡ V
- ipc, 10/ipc, 2 [4]: 0.45 ^‡
- ma/mc [4]: 0.91 ^‡
- ΔEpp, 10/ΔEpp, 2 [4]: 2.16 ^‡
- E° vs. RHE (0.5M Li2SO4, pH 6.6, considerable degradation): −0.81 ^‡ V
- E° vs. RHE (0.9M KCl/0.1M KOH, pH 12.8): −0.45 V
- ipa, 10/ipa, 2 (0.9M KCl/0.1M KOH, pH 12.8): 0.99
- ipc, 10/ipc, 2 (0.9M KCl/0.1M KOH, pH 12.8): 0.96
- ma/mc (0.9M KCl/0.1M KOH, pH 12.8): 0.46
- ΔEpp, 10/ΔEpp, 2 (0.9M KCl/0.1M KOH, pH 12.8): 1.05
- E° vs. RHE (0.9M KNO3/0.1M KOH, pH 12.8): −0.50 V
- ipa, 10/ipa, 2 (0.9M KNO3/0.1M KOH, pH 12.8): 0.99
- ipc, 10/ipc, 2 (0.9M KNO3/0.1M KOH, pH 12.8): 0.98
- ma/mc (0.9M KNO3/0.1M KOH, pH 12.8): 0.53
- ΔEpp, 10/ΔEpp, 2 (0.9M KNO3/0.1M KOH, pH 12.8): 1.03
- E° vs. RHE (0.9M LiCl/0.1M LiOH, pH 12.1): −0.53 V
- ipa, 10/ipa, 2 (0.9M LiCl/0.1M LiOH, pH 12.1): 1.00
- ipc, 10/ipc, 2 (0.9M LiCl/0.1M LiOH, pH 12.1): 0.99
- ma/mc (0.9M LiCl/0.1M LiOH, pH 12.1): 0.51
- ΔEpp, 10/ΔEpp, 2 (0.9M LiCl/0.1M LiOH, pH 12.1): 1.04
- E° vs. RHE (0.9M LiNO3/0.1M LiOH, pH 12.1): −0.48 V
- ipa, 10/ipa, 2 (0.9M LiNO3/0.1M LiOH, pH 12.1): 0.99
- ipc, 10/ipc, 2 (0.9M LiNO3/0.1M LiOH, pH 12.1): 0.95
- ma/mc (0.9M LiNO3/0.1M LiOH, pH 12.1): 0.51
- ΔEpp, 10/ΔEpp, 2 (0.9M LiNO3/0.1M LiOH, pH 12.1): 1.10
- E° vs. RHE [5]: −0.51 V
- ipa, 10/ipa, 2 [5]: 1.00
- ipc, 10/ipc, 2 [5]: 0.97
- ma/mc [5]: 0.46
- ΔEpp, 10/ΔEpp, 2 [5]: 1.04
- E° vs. RHE (0.9M NaHCO3/0.1M NaOH, pH 9.1): −0.53 V
- ipa, 10/ipa, 2 (0.9M NaHCO3/0.1M NaOH, pH 9.1): 0.82
- ipc, 10/ipc, 2 (0.9M NaHCO3/0.1M NaOH, pH 9.1): 0.78
- ma/mc (0.9M NaHCO3/0.1M NaOH, pH 9.1): 1.63
- ΔEpp, 10/ΔEpp, 2 (0.9M NaHCO3/0.1M NaOH, pH 9.1): 1.56
- E° vs. RHE (0.9M NaNO3/0.1M NaOH, pH 12.5): −0.52 V
- ipa, 10/ipa, 2 (0.9M NaNO3/0.1M NaOH, pH 12.5): 0.98
- ipc, 10/ipc, 2 (0.9M NaNO3/0.1M NaOH, pH 12.5): 0.98
- ma/mc (0.9M NaNO3/0.1M NaOH, pH 12.5): 0.50
- ΔEpp, 10/ΔEpp, 2 (0.9M NaNO3/0.1M NaOH, pH 12.5): 1.07
- ip,a (0.99 M KCl/0.01 M KOH, across all cycles): 0.12 mA
- E° vs. RHE (0.99M KCl/0.01M KOH, pH 11.8): −0.48 V
- ipa, 10/ipa, 2 (0.99M KCl/0.01M KOH, pH 11.8): 1.00
- ipc, 10/ipc, 2 (0.99M KCl/0.01M KOH, pH 11.8): 0.97
- ma/mc (0.99M KCl/0.01M KOH, pH 11.8): 0.59
- ΔEpp, 10/ΔEpp, 2 (0.99M KCl/0.01M KOH, pH 11.8): 1.02
- E° vs. RHE (0.99M KNO3/0.01M KOH, pH 11.7): −0.52 V
- ipa, 10/ipa, 2 (0.99M KNO3/0.01M KOH, pH 11.7): 1.00
- ipc, 10/ipc, 2 (0.99M KNO3/0.01M KOH, pH 11.7): 0.97
- ma/mc (0.99M KNO3/0.01M KOH, pH 11.7): 0.64
- ΔEpp, 10/ΔEpp, 2 (0.99M KNO3/0.01M KOH, pH 11.7): 1.01
- E° vs. RHE (0.99M LiCl/0.01M LiOH, pH 11.4): −0.52 V
- ipa, 10/ipa, 2 (0.99M LiCl/0.01M LiOH, pH 11.4): 0.99
- ipc, 10/ipc, 2 (0.99M LiCl/0.01M LiOH, pH 11.4): 0.96
- ma/mc (0.99M LiCl/0.01M LiOH, pH 11.4): 0.63
- ΔEpp, 10/ΔEpp, 2 (0.99M LiCl/0.01M LiOH, pH 11.4): 1.05
- E° vs. RHE [6]: −0.47 V
- ipa, 10/ipa, 2 [6]: 0.98
- ipc, 10/ipc, 2 [6]: 0.95
- ma/mc [6]: 0.67
- ΔEpp, 10/ΔEpp, 2 [6]: 1.08
- E° vs. RHE [7]: −0.52 V
- ipa, 10/ipa, 2 [7]: 1.01
- ipc, 10/ipc, 2 [7]: 0.97
- ma/mc [7]: 0.58
- ΔEpp, 10/ΔEpp, 2 [7]: 1.06
- E° vs. RHE [8]: −0.53 V
- ipa, 10/ipa, 2 [8]: 0.06
- ipc, 10/ipc, 2 [8]: 0.50
- ma/mc [8]: 1.61
- ΔEpp, 10/ΔEpp, 2 [8]: 2.90
- E° vs. RHE [9]: −0.52 V
- ipa, 10/ipa, 2 [9]: 1.00
- ipc, 10/ipc, 2 [9]: 0.96
- ma/mc [9]: 0.61
- ΔEpp, 10/ΔEpp, 2 [9]: 1.04
- ip,a (1 M KCl, cycle 2): 0.11 mA
- ip,a (1 M KCl, cycle 10): 0.06 mA
- E° vs. RHE (1M KCl, pH 5.4): −0.80 V
- ipa, 10/ipa, 2 (1M KCl, pH 5.4): 0.57
- ipc, 10/ipc, 2 (1M KCl, pH 5.4): 0.56
- ma/mc (1M KCl, pH 5.4): 0.75
- ΔEpp, 10/ΔEpp, 2 (1M KCl, pH 5.4): 1.85
- E° vs. RHE [10]: −0.76 ^† V
- ipa, 10/ipa, 2 [10]: 0.91 ^†
- ipc, 10/ipc, 2 [10]: 1.01 ^†
- ma/mc [10]: 1.51 ^†
- ΔEpp, 10/ΔEpp, 2 [10]: 1.04 ^†
- peak separation (1 M KOH, 1 M NaOH, or 1 M LiOH): ~150 mV
- E° vs. RHE (1M KOH, pH 13.7): −0.48 V
- ipa, 10/ipa, 2 (1M KOH, pH 13.7): 0.98
- ipc, 10/ipc, 2 (1M KOH, pH 13.7): 0.97
- ma/mc (1M KOH, pH 13.7): 0.42
- ΔEpp, 10/ΔEpp, 2 (1M KOH, pH 13.7): 1.04
- E° vs. RHE [11]: −0.94 ^‡ V
- ipc, 10/ipc, 2 [11]: 0.08 ^‡
- ma/mc [11]: 0.96 ^‡
- ΔEpp, 10/ΔEpp, 2 [11]: 2.95 ^‡
- E° vs. RHE [12]: −0.75 ^† V
- ipa, 10/ipa, 2 [12]: 0.80 ^†
- ipc, 10/ipc, 2 [12]: 0.91 ^†
- ma/mc [12]: 1.94 ^†
- ΔEpp, 10/ΔEpp, 2 [12]: 1.11 ^†
- E° vs. RHE (1M LiOH, pH 12.7): −0.55 V
- ipa, 10/ipa, 2 (1M LiOH, pH 12.7): 0.98
- ipc, 10/ipc, 2 (1M LiOH, pH 12.7): 0.96
- ma/mc (1M LiOH, pH 12.7): 0.45
- ΔEpp, 10/ΔEpp, 2 (1M LiOH, pH 12.7): 1.00
- E° vs. RHE (1M NaC2H3O2, pH 8.6, two distinct reduction and oxidation peaks): −0.68 * V
- E° vs. RHE [13]: −0.53 ^‡ V
- ma/mc [13]: 1.51 ^‡
- E° vs. RHE (1M NaNO3, pH 6.8): −0.77 V
- ipa, 10/ipa, 2 (1M NaNO3, pH 6.8): 0.12
- ipc, 10/ipc, 2 (1M NaNO3, pH 6.8): 0.46
- ma/mc (1M NaNO3, pH 6.8): 0.82
- ΔEpp, 10/ΔEpp, 2 (1M NaNO3, pH 6.8): 1.78
- E° vs. RHE (1M NaOH, pH 13.8): −0.48 V
- ipa, 10/ipa, 2 (1M NaOH, pH 13.8): 0.99
- ipc, 10/ipc, 2 (1M NaOH, pH 13.8): 0.98
- ma/mc (1M NaOH, pH 13.8): 0.46
- ΔEpp, 10/ΔEpp, 2 (1M NaOH, pH 13.8): 1.01
- peak separation (KCl electrolyte with 0.01 M KOH, cycle 2): 230 mV
- peak separation (KCl electrolyte with 0.1 M KOH, cycle 2): 200 mV
- ratio of charge transferred between the cathodic and anodic scans (all electrolytes with pH≥11.4, within a particular CV cycle): exceeded 0.9
- redox potential E° vs. RHE (cases where quinoxaline exhibited stable performance over multiple CV cycles): ≈ −0.5 V
- redox potential E° vs. RHE (electrolytes where degradation of quinoxaline was observed, not indicators of the actual redox potential): ≤ −0.75 V
- peak separation (sulfate and chloride anions, at 0.01 M OH^−): < 220 mV
- peak separation (sulfate and chloride anions, at 0.1 M OH^−): < 200 mV
